Drawing on patent publication US20230242520A1, “MALONITRILE DERIVATIVES” (Hoffmann-La Roche Inc., priority 2020, published 2023), this text covers IC50 for 24 compounds.

pIC50: −log10 of the molar value.

As a reminder, the pIC50 is the negative decadic logarithm of the IC50, by convention in mol/L.

This assay has as its target T1, human cGAS (residues 161-522) (Homo sapiens, UniProt Q8N884).
T1 construct: Recombinantly expressed purified human cGAS (residues 161-522) was used at 25 nM; made in house
The experiment in a line: cGAS Activity Assay - Malachite Green (coupled enzymatic assay, phosphate detection). Type of assay: biochemical. Conditions: recombinant human cGAS 25 nM, 80 μM ATP, 80 μM GTP, 100 nM ISD, 4 hour at RT. As to the method:
cGAS Activity Assay—Malachite Green
Compounds were tested for cGAS inhibition in a coupled enzymatic assay based on Phosphate detection by Malachite Green. Final assay conditions were 20 mM TRIS pH 7.5 (Applichem), 5 mM MgCl2 (Sigma) and 0.01% BSA (Sigma) supplemented with 80 μM ATP (Sigma), 80 μM GTP (Sigma) and 100 nM Interferon Stimulating DNA (ISD) (Microsynth). Recombinantly expressed purified human cGAS (residues 161-522) was used at 25 nM.
All compounds were prepared as 10 mM stock solutions in DMSO and a 16 pt dilution series in DMSO with a dilution factor of 2.5 was prepared. 1 μL of DMSO dilution series was transferred to 32.3 μL reaction buffer, mixed by pipetting up/down, spun for 1 minute at 3000 rpm and was visually inspected for precipitation. 5 μL of 3-fold enzyme stock solution were transferred to an empty 384-well Black/Clear Flat Bottom Polystyrene NBS (Corning) rows 3-24. Rows 1-2 were filled with assay buffer. Plates were spun 10 seconds at 1000 rpm (164×g). 5 μL of compound intermediate dilution was added and mixed by pipetting up/down to rows 3-24. Rows 1-2 were filled with 3.1% DMSO assay buffer. Plates were spun 10 seconds at 1000 rpm (164×g). 5 μL 3-fold Nucleotide/DNA mix was added to all wells to start the reaction. Plates were spun 10 seconds at 1000 rpm (164×g) and incubated for 4 hour at room temperature (RT) in the dark. 5 μL 4 U/mL PPase (Sigma) were added to all wells. Plates spun 10 seconds at 1000 rpm (164×g). 10 μL BioMol green Solution (Enzo Life Sciences) was added to all wells. Plates spun 10 seconds at 1000 rpm (164×g) and incubated 30 minutes at RT in the dark. Absorbance data was collected 620 nm on an EnVision Multilable Reader (Perkin Elmer) and the following measurement settings were used: excitation filter photometric was 620 nm; excitation from the top; measurement height was 1 mm; number of flashes was 30; number of flashes integrated was 1.
All plates are checked for abnormalities and outliers in the Blank Control (no protein, row 1) and the Neutral Control (no compound, row 2) are excluded using the 3*SD rule. Data was normalized to 0 and 100% by Blank and Neutral Control and each curve was fitted and judged using the 4 parameter logistic equation to determine the IC50 for cGAS inhibition.
Table 2 provides IC50 values (μM ) for cGAS inhibition obtained for particular examples of the present invention as measured by the above-described assay.

T1 sequence (Q8N884 161-522): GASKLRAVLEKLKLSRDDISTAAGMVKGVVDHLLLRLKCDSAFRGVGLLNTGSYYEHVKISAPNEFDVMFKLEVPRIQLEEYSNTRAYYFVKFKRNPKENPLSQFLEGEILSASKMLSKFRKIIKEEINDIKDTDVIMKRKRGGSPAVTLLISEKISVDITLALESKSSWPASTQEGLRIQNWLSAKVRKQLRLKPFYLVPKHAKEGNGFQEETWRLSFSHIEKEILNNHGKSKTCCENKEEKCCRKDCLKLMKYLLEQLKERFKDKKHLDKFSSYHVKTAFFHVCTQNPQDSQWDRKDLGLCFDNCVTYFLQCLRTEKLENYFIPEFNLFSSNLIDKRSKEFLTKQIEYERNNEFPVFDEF

As for `Cn1cncc1/C(O)=C(\C#N)C(=O)Nc1ccc(C(F)(F)F)cc1` [Example 1, (Z)-2-Cyano-3-hydroxy-3-(1-methyl-1H-imidazol-5-yl)-N-(4-(trifluoromethyl)phenyl)acrylamide], the pIC50 is 5.73.
In the case of `Cc1oncc1/C(O)=C(\C#N)C(=O)Nc1cccnc1` [Example 2, (Z)-2-cyano-3-hydroxy-3-(5-methylisoxazol-4-yl)-N-(3-pyridyl)prop-2-], the pIC50 is 5.80.
As for `Cc1oncc1/C(O)=C(\C#N)C(=O)Nc1ccc2c(c1)CCC2=O` [Example 3, (Z)-2-cyano-3-hydroxy-3-(5-methylisoxazol-4-yl)-N-(1-oxoindan-5-yl)prop-2-enamide], the pIC50 was 6.66.
With `Cn1nncc1/C(O)=C(\C#N)C(=O)Nc1ccc(C(F)(F)F)cc1` [Example 4, (Z)-2-cyano-3-hydroxy-3-(1-methyl-1H-1,2,3-triazol-5-yl)-N-(4-(trifluoromethyl)phenyl) acrylamide], the pIC50 is 5.20.
Regarding `Cc1oncc1/C(O)=C(\C#N)C(=O)Nc1ccn(C)c(=O)c1` [Example 5, (Z)-2-cyano-3-hydroxy-3-(5-methylisoxazol-4-yl)-N-(1-methyl-2-oxo-4-pyridyl)prop-2-enamide], the pIC50 is 6.77.
On to `Cc1oncc1/C(O)=C(\C#N)C(=O)Nc1cc[nH]c(=O)c1` [Example 6, (Z)-2-cyano-3-hydroxy-3-(5-methylisoxazol-4-yl)-N-(2-oxo-1H-pyridin-4-yl)prop-2-enamide], for which the negative-log IC50 (pIC50) was 6.74.
In the case of `COc1ccc(NC(=O)/C(C#N)=C(\O)c2cnoc2C)nn1` [Example 7, (Z)-2-cyano-3-hydroxy-N-(6-methoxypyridazin-3-yl)-3-(5-methylisoxazol-4-yl)prop-2-enamide], the pIC50 was 5.99.
Then `COc1ccc(NC(=O)/C(C#N)=C(\O)c2cnoc2C)cn1` [Example 8, (Z)-2-cyano-3-hydroxy-N-(6-methoxy-3-pyridyl)-3-(5-methylisoxazol-4-yl)prop-2-enamide], with 5.87; and `COC(=O)c1sccc1NC(=O)/C(C#N)=C(\O)c1cnoc1C` [Example 9, methyl (Z)-3-(2-cyano-3-hydroxy-3-(5-methylisoxazol-4-yl)acrylamido) thiophene-2-carboxylate], with 5.90.
On to `CCOC(=O)c1c(C)csc1NC(=O)/C(C#N)=C(\O)c1cnoc1C` [Example 10, ethyl (Z)-2-(2-cyano-3-hydroxy-3-(5-methylisoxazol-4-yl)acrylamido)-4-methylthiophene-3-carboxylate], for which the pIC50 is 6.09.
The same measure for `Cc1nocc1/C(O)=C(\C#N)C(=O)Nc1ccc(C(F)(F)F)cc1` [Example 11, (Z)-2-cyano-3-hydroxy-3-(3-methylisoxazol-4-yl)-N-(4-(trifluoromethyl)phenyl) acrylamide]: 5.40; for `COC(=O)c1ccc(NC(=O)/C(C#N)=C(\O)c2conc2C)cc1` [Example 12, methyl (Z)-4-(2-cyano-3-hydroxy-3-(3-methylisoxazol-4-yl)acrylamido) benzoate]: 5.95; for `N#C/C(C(=O)Nc1ccc(C(F)(F)F)cc1)=C(/O)c1cnco1` [Example 13, (Z)-2-cyano-3-hydroxy-3-(oxazol-5-yl)-N-(4-(trifluoromethyl)phenyl) acrylamide]: 5.14.
The same measure for `Cc1cnoc1/C(O)=C(\C#N)C(=O)Nc1ccc(C(F)(F)F)cc1` [Example 14, (Z)-2-cyano-3-hydroxy-3-(4-methylisoxazol-5-yl)-N-(4-(trifluoromethyl)phenyl) acrylamide]: 5.07; for `Cc1sncc1/C(O)=C(\C#N)C(=O)Nc1ccc(C(F)(F)F)cc1` [Example 15, (Z)-2-cyano-3-hydroxy-3-(5-methylisothiazol-4-yl)-N-(4-(trifluoromethyl)phenyl) acrylamide]: 5.32; for `Cc1oncc1/C(O)=C(\C#N)C(=O)Nc1cccc2ccccc12` [Example 16, (Z)-2-cyano-3-hydroxy-3-(5-methylisoxazol-4-yl)-N-(naphthalen-1-yl)acrylamide]: 5.75.
`Cc1oncc1/C(O)=C(\C#N)C(=O)Nc1ccc2ccccc2c1` [Example 17, (Z)-2-cyano-3-hydroxy-3-(5-methylisoxazol-4-yl)-N-(naphthalen-2-yl)acrylamide]: the pIC50 was 5.95.
On to `Cc1oncc1/C(O)=C(\C#N)C(=O)Nc1ccncc1` [Example 18, (Z)-2-cyano-3-hydroxy-3-(5-methylisoxazol-4-yl)-N-(4-pyridyl)prop-2-enamide], for which the negative logarithm of the IC50 (pIC50) was 6.21.
As for `COc1cnc(NC(=O)/C(C#N)=C(\O)c2cnoc2C)cn1` [Example 19, (Z)-2-cyano-3-hydroxy-N-(5-methoxypyrazin-2-yl)-3-(5-methylisoxazol-4-yl)prop-2-enamide], the pIC50 is 6.08.
As for `Cc1cccc(C)c1NC(=O)c1ccc(NC(=O)/C(C#N)=C(\O)c2cnoc2C)cn1` [Example 20, (Z)-5-(2-cyano-3-hydroxy-3-(5-methylisoxazol-4-yl)acrylamido)-N-(2,6-dimethylphenyl) picolinamide], the pIC50 is 6.30.
Turning to `COc1cccc(-c2cc3cc(NC(=O)/C(C#N)=C(\O)c4cnoc4C)ccc3c(=O)[nH]2)c1` [Example 21, (Z)-2-cyano-3-hydroxy-N-(3-(3-methoxyphenyl)-1-oxo-1,2-dihydroisoquinolin-6-yl)-3-(5-methylisoxazol-4-yl)acrylamide], the pIC50 is 5.97.
Take `Cc1oncc1/C(O)=C(\C#N)C(=O)Nc1nc2c(c(-c3ccccc3)n1)CCCC2` [Example 22, (Z)-2-cyano-3-hydroxy-3-(5-methylisoxazol-4-yl)-N-(4-phenyl-5,6,7,8-tetrahydroquinazolin-2-yl)acrylamide]: the pIC50 was 6.01.
On to `COc1nc(NC(=O)/C(C#N)=C(\O)c2cnoc2C)nc2c1CCCC2` [Example 23, (Z)-2-cyano-3-hydroxy-N-(4-methoxy-5,6,7,8-tetrahydroquinazolin-2-yl)-3-(5-methylisoxazol-4-yl)acrylamide], for which the pIC50 was 5.28.
Regarding `Cc1nc(NC(=O)/C(C#N)=C(\O)c2cnoc2C)nc2c1CS(=O)(=O)CC2` [Example 24, (Z)-2-cyano-3-hydroxy-N-(4-methyl-6,6-dioxido-7,8-dihydro-5H-thiopyrano[4,3-d]pyrimidin-2-yl)-3-(5-methylisoxazol-4-yl)acrylamide], the pIC50 is 6.35.
